row,SMILES,melting point [°C]
1,"Fc1ccc(/C=C/c2nc(COc3cccc(CCCn4ccnn4)c3)co2)cc1 [B3, 1-{3-[3-({2-[(E)-2-(4-fluorophenyl)ethenyl]-1,3-oxazol-4-yl}methoxy)phenyl]propyl}-1H-1,2,3-triazole]",105 to 106
2,"FC(F)(F)c1ccc(/C=C/c2nc(COc3ccc(CCCn4ccnn4)cc3)co2)cc1 [B5, 1-(3-{4-[(2-{(E)-2-[4-(trifluoromethyl)phenyl]ethenyl}-1,3-oxazol-4-yl)methoxy]phenyl}propyl)-1H-1,2,3-triazole]",157 to 158
3,"Fc1ccc(/C=C/c2nc(COc3ccc(CCCCn4ccnn4)cc3)co2)c(F)c1 [B7, 1-{4-[4-({2-[(E)-2-(2,4-difluorophenyl)ethenyl]-1,3-oxazol-4-yl}methoxy)phenyl]butyl}-1H-1,2,3-triazole]",115 to 117
4,"Fc1ccc(/C=C/c2nc(COc3cccc(CCCn4ccnn4)c3)co2)c(F)c1 [B8, 1-{3-[3-({2-[(E)-2-(2,4-difluorophenyl)ethenyl]-1,3-oxazol-4-yl}methoxy)phenyl]propyl}-1H-1,2,3-triazole]",89 to 90
5,"Cc1ccc(/C=C/c2nc(COc3ccc(CCCCn4ccnc4CCO)cc3)co2)cc1 [B10, 2-[1-[4-[4-[[2-[(E)-2-(4-methylphenyl)ethenyl]-1,3-oxazol-4-yl]methoxy]phenyl]butyl]-1H-imidazol-2-yl]-1-ethanol]",108 to 109
6,"Cc1cccc(/C=C/c2nc(COc3ccc(CCCCn4ccnc4CCO)cc3)co2)c1 [B11, 2-[1-[4-[4-[[2-[(E)-2-(3-methylphenyl)ethenyl]-1,3-oxazol-4-yl]methoxy]phenyl]butyl]-1H-imidazol-2-yl]-1-ethanol]",109 to 111
7,"CCc1ccc(/C=C/c2nc(COc3ccc(CCCCn4ccnc4CCO)cc3)co2)cc1 [B13, 2-[1-[4-[4-[[2-[(E)-2-(4-ethylphenyl)ethenyl]-1,3-oxazol-4-yl]methoxy]phenyl]butyl]-1H-imidazol-2-yl]-1-ethanol]",94 to 95
8,"OCCc1nccn1CCCCc1ccc(OCc2coc(/C=C/c3ccc(F)cc3)n2)cc1 [B14, 2-(1-{4-[4-({2-[(E)-2-(4-fluorophenyl)ethenyl]-1,3-oxazol-4-yl}methoxy)phenyl]butyl}-1H-imidazol-2-yl)-1-ethanol]",130 to 132
9,"OCCc1nccn1CCCCc1ccc(OCc2coc(/C=C/c3ccc(Cl)cc3)n2)cc1 [B15, 2-[1-[4-[4-[[2-[(E)-2-(4-chlorophenyl)ethenyl]-1,3-oxazol-4-yl]methoxy]phenyl]butyl]-1H-imidazol-2-yl]-1-ethanol]",127 to 128
10,"OCCc1nccn1CCCCc1ccc(OCc2coc(/C=C/c3ccc(Br)cc3)n2)cc1 [B16, 2-[1-[4-[4-[[2-[(E)-2-(4-bromophenyl)ethenyl]-1,3-oxazol-4-yl]methoxy]phenyl]butyl]-1H-imidazol-2-yl]-1-ethanol]",149 to 150
11,"OCCc1nccn1CCCc1ccc(OCc2coc(/C=C/c3ccc(F)cc3F)n2)cc1 [B20, 2-[1-[3-[4-[[2-[(E)-2-(2,4-difluorophenyl)ethenyl]-1,3-oxazol-4-yl]methoxy]phenyl]propyl]-1H-imidazol-2-yl]-1-ehtanol]",94 to 96
12,"Cc1cccc(/C=C/c2nc(COc3ccc(CCCCn4ccnc4CC(O)CO)cc3)co2)c1 (stereo not shown) [B22, 3-(1-{4-[4-({2-[(E)-2-(3-methylpheyl)ethenyl]-1,3-oxazol-4-yl}methoxy)phenyl]butyl}-1H-imidazol-2-yl)-1,2-propanediol]",102 to 104
13,"OCC(O)Cc1nccn1CCCCc1ccc(OCc2coc(/C=C/c3ccc(F)cc3)n2)cc1 (stereo not shown) [B23, 3-(1-{4-[4-({2-[(E)-2-(4-fluorophenyl)ethenyl]-1,3-oxazol-4-yl}methoxy)phenyl]butyl}-1H-imidazol-2-yl)-1,2-propanediol]",114 to 116
14,"OCC(O)Cc1nccn1CCCCc1ccc(OCc2coc(/C=C/c3ccc(C(F)(F)F)cc3)n2)cc1 (stereo not shown) [B24, 3-[1-(4-{4-[(2-{(E)-2-{4-(trifluoromethyl)phenyl}ethenyl}-1,3-oxazol-4-yl)methoxy]phenyl}butyl]-1H-imidazol-2-yl]-1,2-propanediol]",142 to 143
15,"OCC(O)Cc1nccn1CCCc1cccc(OCc2coc(/C=C/c3ccc(C(F)(F)F)cc3)n2)c1 (stereo not shown) [B25, 3-[1-(3-{3-[(2-{(E)-2-[4-(trifluoromethyl)phenyl]ethenyl}-1,3-oxazol-4-yl)methoxy]phenyl}propyl)-1H-imidazol-2-yl]-1,2-propanediol]",102 to 104
16,"OCC(O)Cc1nccn1CCCc1cccc(OCc2coc(/C=C/c3ccc(F)cc3F)n2)c1 (stereo not shown) [B27, 3-(1-{3-[3-({2-[(E)-2-(2,4-difluorophenyl)ethenyl]-1,3-oxazol-4-yl}methoxy)phenyl]propyl}1H-imidazol-2-yl)-1,2-propanediol]",92 to 94
17,"OCC(O)Cc1nccn1CCCCc1ccc(OCc2coc(/C=C/c3c(F)cccc3F)n2)cc1 (stereo not shown) [B28, 3-[1-[4-[4-[[2-[(E)-2-(2,6-difluorophenyl)ethenyl]-1,3-oxazol-4-yl]methoxy]phenyl]butyl]-1H-imidazol-2-yl]-1,2-propanediol]",123 to 125
18,"Fc1ccc(/C=C/c2nc(COc3ccc(CCCCn4ccnn4)cc3)co2)cc1 [Reference Example B2, 1-{4-[4-({2-[(E)-2-(4-fluorophenyl)ethenyl]-1,3-oxazol-4-yl}methoxy)phenyl]butyl}-1H-1,2,3-triazole]",124 to 125
19,"FC(F)(F)c1ccc(/C=C/c2nc(COc3cccc(CCCn4ccnn4)c3)co2)cc1 [Reference Example B6, 1-(3-{3-[(2-{(E)-2-[4-(trifluoromethyl)phenyl]ethenyl}-1,3-oxazol-4-yl)methoxy]phenyl}propyl)-1H-1,2,3-triazole]",115 to 116
20,"Cc1ccccc1/C=C/c1nc(COc2ccc(CCCCn3ccnc3CCO)cc2)co1 [Reference Example B12, 2-[1-[4-[4-[[2-[(E)-2-(2-methylphenyl)ethenyl]-1,3-oxazol-4-yl]methoxy]phenyl]butyl]-1H-imidazol-2-yl]-1-ethanol]",91 to 93
21,"OCCc1nccn1CCCCc1ccc(OCc2coc(/C=C/c3ccc(F)cc3F)n2)cc1 [Reference Example B19, 2-[1-[4-[4-[[2-[(E)-2-(2,4-difluorophenyl)ethenyl]-1,3-oxazol-4-yl]methoxy]phenyl]butyl]-1H-imidazol-2-yl]-1-ethanol]",93 to 95
22,"OCC(O)Cc1nccn1CCCCc1ccc(OCc2coc(/C=C/c3ccc(F)cc3F)n2)cc1 (stereo not shown) [Reference Example B26, 3-(1-{4-[4-({2-[(E)-2-(2,4-difluorophenyl)ethenyl]-1,3-oxazol-4-yl}methoxy)phenyl]butyl}-1H-imidazol-2-yl)-1,2-propanediol]",126 to 128

# — patent US20040058956A1, “Pharmaceutical composition having an improved water solubility” (priority 2000, published 2004)
